In patent USRE46397E1, “Slow release of organic salts of local anesthetics for pain relief” (SVIP5 LLC, priority 2007, dated 2017):
Read-outs that look alike come from different tables or passages of the source.

How the values were obtained:
male, Sprague-Dawley rat = assay: Radiant heat pain threshold test after introducing particles into a paraspinal pocket; type: in vivo; settings: 20 seconds cut-off, treated right side
Protocol: To test the local anesthetic efficacy and duration of effect induced by bupivacaine palmitate particles, a treatment and control side in a male, Sprague-Dawley rat (250-300 g) was employed. The animal was anesthetized with isoflurane inhalation (2.5-3%), whereupon the back was partly shaved. A 16 g needle was introduced deep to the shaved skin on the left mid paraspinal back and moved side to side to clear a small (1.0 cm diameter) pocket. A similar procedure was performed on the right side. The needle was then used to introduce test local anesthetic bupivacaine palmitate particles into the pocket on the right side.
The rat was awakened and placed in a Decapicone for restraint. As restraint itself can produce endogenous analgesic effects, the animal was allowed to rest quietly in the cone for 15 min prior to any testing. Radiant heat from a focused projection bulb with area of approximately 0.5 cm^2 was then directed to the test areas to assess the pain threshold several times on each side. The light was applied until the rat attempted to move within the restraint cone, at which time the light heat stimulus was turned off. The light heat stimulus was never allowed to exceed a 20 seconds interval in order to avoid permanent damage to the skin or undue discomfort.
The post-procedural results at 15 min, 1 and 2 days are represented in average number of seconds before movement: […]

[1] = cited from earlier work; for Maximum Dose: without epinephrine
[2] = cited from earlier work; for Onset: in vivo; for Duration: without epinephrine

SMILES	average number of seconds before movement (male, Sprague-Dawley rat; Day 0 (15 min post-procedure), radiant heat) [s]	average number of seconds before movement (male, Sprague-Dawley rat; Day 1, radiant heat) [s]	average number of seconds before movement (male, Sprague-Dawley rat; Day 2, radiant heat) [s]	Maximum Dose (with Epinephrine) [1]	Maximum Dose [1] [mg/kg]	Onset [2]	Duration (with Epinephrine) [2]	Duration [2] [h]	Maximum Dose ([1]; total in 24 hrs) [mg in 24 hrs]
CCCCN1CCCCC1C(=O)Nc1c(C)cccc1C (stereo not shown) [Bupivacaine]	>20	16	7.6	(3 mg/kg)	2.5	Slow	(8 h)	4	
CCN(CC)CCOC(=O)c1ccc(N)cc1Cl [Chloroprocaine]				(15 mg/kg)	10	Rapid	(90 min)	0.5	
CCCN(CC)C(CC)C(=O)Nc1c(C)cccc1C (stereo not shown) [Etidocaine]				(4 mg/kg)	2.5	Rapid	(8 h)	4	
CCCCN1CCCC[C@H]1C(=O)Nc1c(C)cccc1C [Levobupivacaine]					2.0	Medium	(8-12 h)	4 to 6	400
CCN(CC)CC(=O)Nc1c(C)cccc1C [Lidocaine, 2-(diethylamino)-N-(2,6-dimethylphenyl)-acetamide]				(7 mg/kg)	4.5	Rapid	(240 min)	2	
Cc1cccc(C)c1NC(=O)C1CCCCN1C (stereo not shown) [Mepivacaine]				(7 mg/kg)	5	Rapid	(360 min)	3	
CCCNC(C)C(=O)Nc1ccccc1C (stereo not shown) [Prilocaine]				(7.5 mg/kg)	5	Medium	(360 min)	1.5	
CCN(CC)CCOC(=O)c1ccc(N)cc1 [Procaine]				(10 mg/kg)	8	Slow	(90 min)	0.75	
CCCN1CCCC[C@H]1C(=O)Nc1c(C)cccc1C [Ropivacaine]					2 to 3	Medium	(6 h)	3	
CCCCNc1ccc(C(=O)OCCN(C)C)cc1 [Tetracaine]				(2.5 mg/kg)	1.5	Slow	(10 h)	3	
